ChEMBL document CHEMBL1201862, “PubChem BioAssay data set” (2004)
Counter-ions that a name gives are not always drawn.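 All cell lines were grown in 96-well plates and treated with compound for 48 hours. GI50 = concentration required for 50% inhibition of growth.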 Active and inactive are the calls of the source. Cut-off read from the data, not from the text of the source: active = GI50 up to about 1.1 µM and inactive = higher.

Experiments:
Experiment in all cases: NCI anticancer screen, dose series, 48 h
[1] = tested on: U-251
[2] = tested on: UO-31
[3] = tested on: OVCAR-3
[4] = tested on: SK-OV-3
[5] = tested on: HOP-62
[6] = tested on: RPMI-8226
[7] = tested on: NCI-H522
[8] = tested on: CCRF-CEM
[9] = tested on: SW-620
[10] = tested on: HL-60
[11] = tested on: SN12C
[12] = tested on: SNB-19
[13] = tested on: SK-MEL-2
[14] = tested on: Hs-578T
[15] = tested on: A549
[16] = tested on: OVCAR-4
[17] = tested on: OVCAR-8
[18] = tested on: CAKI-1
[19] = tested on: COLO 205
[20] = tested on: NCI-H23

## OC1(c2ccc3ccccc3c2)c2c(c3ccccc3c3ccccc23)C2=NCCN21 (stereo not given)
[1]
  GI50: 5.75 µM (inactive)
[2]
  GI50: 6.92 µM (inactive)
[3]
  GI50: 7.21 µM (inactive)
[4]
  GI50: 6.68 µM (inactive)
[5]
  GI50: 9.33 µM (inactive)
[6]
  GI50: 2.52 µM (inactive)
[7]
  GI50: 3.85 µM (inactive)
[8]
  GI50: 4.25 µM (inactive)
[9]
  GI50: 3.34 µM (inactive)
[10]
  GI50: 6.46 µM (inactive)
[11]
  GI50: 9.2 µM (inactive)
[12]
  GI50: 12.9 µM (inactive)
[13]
  GI50: 7.16 µM (inactive)
[14]
  GI50: 6.14 µM (inactive)
[15]
  GI50: 7.1 µM (inactive)
[16]
  GI50: 3.55 µM (inactive)
[17]
  GI50: 4.44 µM (inactive)
[18]
  GI50: 11.7 µM (inactive)
[19]
  GI50: 1.85 µM (inactive)
[20]
  GI50: 12.1 µM (inactive)

## COc1ccc(C(=O)Cn2c(C(C)=O)nc3ccccc32)cc1
[1]
  GI50: 3.74 µM (inactive)
[2]
  GI50: 11.8 µM (inactive)
[3]
  GI50: 6.31 µM (inactive)
[4]
  GI50: 14.7 µM (inactive)
[5]
  GI50: 12.1 µM (inactive)
[6]
  GI50: 14.6 µM (inactive)
[7]
  GI50: 3.86 µM (inactive)
[8]
  GI50: 5.93 µM (inactive)
[9]
  GI50: 5.56 µM (inactive)
[10]
  GI50: 3.41 µM (inactive)
[11]
  GI50: 16.4 µM (inactive)
[12]
  GI50: > 34.1 µM (inactive)
[13]
  GI50: 12.7 µM (inactive)
[14]
  GI50: 23.2 µM (inactive)
[15]
  GI50: 5.31 µM (inactive)
[16]
  GI50: 14.2 µM (inactive)
[17]
  GI50: 3.8 µM (inactive)
[18]
  GI50: 7.21 µM (inactive)
[19]
  GI50: 18.3 µM (inactive)
[20]
  GI50: 13.2 µM (inactive)

## C[C@H](CCC(=O)O[C@@H]1CC[C@@]2(C)C(CC[C@H]3[C@@H]4CC[C@H]([C@H](C)CCc5nc6ccccc6[nH]5)[C@@]4(C)CC[C@@H]32)C1)[C@H]1CC[C@H]2[C@@H]3CCC4C[C@H](O)CC[C@]4(C)[C@H]3CC[C@]12C (stereo not given in full)
[1]
  GI50: 36.7 µM (inactive)
[2]
  GI50: 2.43 µM (inactive)
[3]
  GI50: > 100 µM (inactive)
[4]
  GI50: > 81.5 µM (inactive)
[5]
  GI50: 25.7 µM (inactive)
[6]
  GI50: > 100 µM (inactive)
[7]
  GI50: 3.16 µM (inactive)
[8]
  GI50: > 100 µM (inactive)
[9]
  GI50: > 100 µM (inactive)
[10]
  GI50: > 100 µM (inactive)
[11]
  GI50: > 100 µM (inactive)
[12]
  GI50: 5.48 µM (inactive)
[13]
  GI50: > 100 µM (inactive)
[14]
  GI50: 0.494 µM (active)
[15]
  GI50: > 100 µM (inactive)
[16]
  GI50: 0.501 µM (active)
[17]
  GI50: 20.2 µM (inactive)
[18]
  GI50: > 31.3 µM (inactive)
[19]
  GI50: > 100 µM (inactive)
[20]
  GI50: 4.53 µM (inactive)

## Cc1nnc(S(=O)(=O)c2ccc(/N=N/c3c(N)nc(N)nc3N)cc2)s1
[1]
  GI50: > 100 µM (inactive)
[2]
  GI50: > 100 µM (inactive)
[3]
  GI50: > 100 µM (inactive)
[4]
  GI50: > 100 µM (inactive)
[5]
  GI50: > 100 µM (inactive)
[6]
  GI50: > 100 µM (inactive)
[7]
  GI50: > 100 µM (inactive)
[8]
  GI50: > 100 µM (inactive)
[9]
  GI50: > 100 µM (inactive)
[10]
  GI50: 33.4 µM (inactive)
[11]
  GI50: > 100 µM (inactive)
[12]
  GI50: > 100 µM (inactive)
[13]
  GI50: > 100 µM (inactive)
[14]
  GI50: > 100 µM (inactive)
[15]
  GI50: > 100 µM (inactive)
[16]
  GI50: > 100 µM (inactive)
[17]
  GI50: > 100 µM (inactive)
[18]
  GI50: > 100 µM (inactive)
[19]
  GI50: > 100 µM (inactive)
[20]
  GI50: > 100 µM (inactive)

## C[n+]1c(Cl)cn2c3nc4ccccc4nc3c([O-])c(C#N)c21
[1]
  GI50: > 100 µM (inactive)
[2]
  GI50: > 100 µM (inactive)
[3]
  GI50: > 100 µM (inactive)
[4]
  GI50: > 100 µM (inactive)
[5]
  GI50: > 10 µM (inactive)
[6]
  GI50: > 100 µM (inactive)
[7]
  GI50: > 10 µM (inactive)
[8]
  GI50: 77.3 µM (inactive)
[9]
  GI50: > 100 µM (inactive)
[10]
  GI50: > 100 µM (inactive)
[11]
  GI50: > 100 µM (inactive)
[12]
  GI50: > 100 µM (inactive)
[13]
  GI50: > 4.65 µM (inactive)
[14]
  GI50: > 100 µM (inactive)
[15]
  GI50: > 100 µM (inactive)
[16]
  GI50: > 59 µM (inactive)
[17]
  GI50: > 100 µM (inactive)
[18]
  GI50: > 100 µM (inactive)
[19]
  GI50: > 100 µM (inactive)
[20]
  GI50: > 100 µM (inactive)

## CC(C)=C1CCC(CN2CCOCC2)C1=O (stereo not given)
[1]
  GI50: 32.1 µM (inactive)
[2]
  GI50: 18.1 µM (inactive)
[3]
  GI50: 8.18 µM (inactive)
[4]
  GI50: > 100 µM (inactive)
[5]
  GI50: > 55.5 µM (inactive)
[6]
  GI50: 0.953 µM (active)
[7]
  GI50: 0.0454 µM (active)
[8]
  GI50: 2.49 µM (inactive)
[9]
  GI50: 1.76 µM (inactive)
[10]
  GI50: 4.12 µM (inactive)
[11]
  GI50: 8.59 µM (inactive)
[12]
  GI50: 60.5 µM (inactive)
[13]
  GI50: 19 µM (inactive)
[14]
  GI50: 28.2 µM (inactive)
[15]
  GI50: 20.4 µM (inactive)
[16]
  GI50: 8.18 µM (inactive)
[17]
  GI50: 7.55 µM (inactive)
[18]
  GI50: 0.348 µM (active)
[19]
  GI50: 4.66 µM (inactive)
[20]
  GI50: 17.7 µM (inactive)

## C=C1CC[C@@]2(C)[C@@H]([C@@H]1C)[C@H]1CC[C@@H]3[C@@]4(C)CC[C@H](O)C(C)(C)[C@@H]4CC[C@@]3(C)[C@]1(C)C[C@@H]2O
[1]
  GI50: 1.73 µM (inactive)
[2]
  GI50: 2.5 µM (inactive)
[3]
  GI50: 2.37 µM (inactive)
[4]
  GI50: 3.79 µM (inactive)
[5]
  GI50: 2.24 µM (inactive)
[6]
  GI50: > 100 µM (inactive)
[7]
  GI50: 1.95 µM (inactive)
[8]
  GI50: 5.83 µM (inactive)
[9]
  GI50: 4.03 µM (inactive)
[10]
  GI50: 1.53 µM (inactive)
[11]
  GI50: 2.52 µM (inactive)
[12]
  GI50: 2.32 µM (inactive)
[13]
  GI50: 3.67 µM (inactive)
[14]
  GI50: 2.69 µM (inactive)
[15]
  GI50: 2.05 µM (inactive)
[16]
  GI50: 2.49 µM (inactive)
[17]
  GI50: 1.85 µM (inactive)
[18]
  GI50: 2.42 µM (inactive)
[19]
  GI50: 4.23 µM (inactive)
[20]
  GI50: 2.48 µM (inactive)

## CC(C)C(NCc1c(O)ccc2c(-c3ccccc3)cc(=O)oc12)C(=O)O (stereo not given)
[1]
  GI50: > 100 µM (inactive)
[2]
  GI50: > 100 µM (inactive)
[3]
  GI50: > 100 µM (inactive)
[4]
  GI50: > 100 µM (inactive)
[5]
  GI50: > 100 µM (inactive)
[6]
  GI50: > 100 µM (inactive)
[7]
  GI50: > 100 µM (inactive)
[8]
  GI50: > 100 µM (inactive)
[9]
  GI50: > 100 µM (inactive)
[10]
  GI50: > 100 µM (inactive)
[11]
  GI50: > 100 µM (inactive)
[12]
  GI50: > 100 µM (inactive)
[13]
  GI50: > 100 µM (inactive)
[14]
  GI50: > 100 µM (inactive)
[15]
  GI50: > 100 µM (inactive)
[16]
  GI50: > 100 µM (inactive)
[17]
  GI50: > 100 µM (inactive)
[18]
  GI50: > 100 µM (inactive)
[19]
  GI50: > 100 µM (inactive)
[20]
  GI50: > 100 µM (inactive)

## O=C1c2cccc3cccc(c23)C(=O)N1CCCNCCCCNCCCNCCCN1C(=O)c2cccc3cccc(c23)C1=O [BISNAPHTHALIMIDOPROPYL SPERMIDINE TRIHYDROBROMIDE]
[1]
  GI50: 0.338 µM (active)
[2]
  GI50: 6.5 µM (inactive)
[3]
  GI50: 0.662 µM (active)
[4]
  GI50: 1.5 µM (inactive)
[5]
  GI50: 1.1 µM (active)
[6]
  GI50: 0.355 µM (active)
[7]
  GI50: 0.0859 µM (active)
[8]
  GI50: 0.111 µM (active)
[9]
  GI50: 0.555 µM (active)
[10]
  GI50: 0.172 µM (active)
[11]
  GI50: 0.521 µM (active)
[12]
  GI50: 0.403 µM (active)
[13]
  GI50: 1.22 µM (inactive)
[14]
  GI50: 0.0378 µM (active)
[15]
  GI50: 0.301 µM (active)
[16]
  GI50: 0.431 µM (active)
[17]
  GI50: 0.748 µM (active)
[18]
  GI50: 4.01 µM (inactive)
[19]
  GI50: 0.348 µM (active)
[20]
  GI50: 0.35 µM (active)
